# From ChEMBL document CHEMBL1201862, “PubChem BioAssay data set” (2004)
# The source made the active and inactive calls.
# Tests used:
# [1] = THP-1 cell cytotoxicity, dose response, cytotoxicity control for non-replicating M. tuberculosis project (AID 489025); assay type: functional
# cells [2] = assay type: functional, cell-based
# [3] = molecular target: T1, Trace amine-associated receptor 1 (Homo sapiens, UniProt Q96RJ0); assay: Fluorescence-based cell-based high throughput dose response assay to identify agonists of the human trace amine associated receptor 1 (TAAR1).; assay type: functional
# T1 sequence (Q96RJ0 whole entry): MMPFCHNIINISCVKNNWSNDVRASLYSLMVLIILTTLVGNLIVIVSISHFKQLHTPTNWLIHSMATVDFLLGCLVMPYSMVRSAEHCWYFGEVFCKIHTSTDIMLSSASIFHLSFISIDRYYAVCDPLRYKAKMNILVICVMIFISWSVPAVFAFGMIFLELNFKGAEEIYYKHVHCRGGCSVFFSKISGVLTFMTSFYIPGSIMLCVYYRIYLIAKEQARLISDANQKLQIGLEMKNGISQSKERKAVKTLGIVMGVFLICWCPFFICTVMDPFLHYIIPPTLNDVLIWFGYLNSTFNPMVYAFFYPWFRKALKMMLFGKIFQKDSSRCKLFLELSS
# [4] = molecular target: T1, Trace amine-associated receptor 1; assay: Counterscreen for agonists of the human trace amine associated receptor 1 (hTAAR1): Fluorescence-based cell-based high throughput dose response assay to identify hTAAR1 agonist that also desensitize TAAR1 receptor response.; assay type: functional
# cells [5] = assay type: functional, cell-based; remark: listed apart in the source
# Mu-type opioid receptor = Mu-type opioid receptor (Homo sapiens, UniProt P35372); assay type: functional, cell-based;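 also: U2OS cells with beta-arrestin recruitment to OPRM1 by beta-gal complementation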
# Sequence of Mu-type opioid receptor (P35372 whole entry): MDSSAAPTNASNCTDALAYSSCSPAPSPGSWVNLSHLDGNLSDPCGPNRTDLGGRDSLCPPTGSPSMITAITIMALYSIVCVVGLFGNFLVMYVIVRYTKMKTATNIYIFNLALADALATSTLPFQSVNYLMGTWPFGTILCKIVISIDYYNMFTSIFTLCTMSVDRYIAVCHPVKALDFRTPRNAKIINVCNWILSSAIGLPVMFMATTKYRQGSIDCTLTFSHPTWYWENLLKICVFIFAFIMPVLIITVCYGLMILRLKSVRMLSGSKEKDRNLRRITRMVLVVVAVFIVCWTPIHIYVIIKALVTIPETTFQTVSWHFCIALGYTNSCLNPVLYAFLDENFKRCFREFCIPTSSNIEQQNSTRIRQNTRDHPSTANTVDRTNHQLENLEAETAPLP
# [6] = molecular target: 5-hydroxytryptamine receptor 2A (Mus musculus, UniProt P35363); assay type: functional, cell-based;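 also: CHO-K1 cells with tagged receptor and beta-arrestin; agonist potency measured as compound-induced activation of the receptor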
# Sequence of 5-hydroxytryptamine receptor 2A (P35363 whole entry): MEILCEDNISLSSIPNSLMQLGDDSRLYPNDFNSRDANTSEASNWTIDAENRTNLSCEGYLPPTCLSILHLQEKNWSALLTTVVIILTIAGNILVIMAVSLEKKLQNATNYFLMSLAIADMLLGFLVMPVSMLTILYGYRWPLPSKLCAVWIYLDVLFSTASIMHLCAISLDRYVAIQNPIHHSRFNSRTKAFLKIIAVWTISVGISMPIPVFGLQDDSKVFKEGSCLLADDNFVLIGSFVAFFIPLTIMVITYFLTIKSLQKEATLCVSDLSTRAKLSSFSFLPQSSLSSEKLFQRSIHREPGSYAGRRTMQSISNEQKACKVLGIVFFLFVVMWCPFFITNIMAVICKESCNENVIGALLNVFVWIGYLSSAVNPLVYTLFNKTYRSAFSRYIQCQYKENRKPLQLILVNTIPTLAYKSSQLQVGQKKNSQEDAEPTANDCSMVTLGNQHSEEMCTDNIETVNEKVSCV
# [7] = Luminescence Cell-Based Dose Confirmation HTS to Identify Activators of 5'UTR Stem-Loop Driven Alpha-Synuclein mRNA Translation in H4 Neuroglioblastoma Cells. [Related pubchem assays: 1829 (Project Summary), 1814 (Primary HTS)]; assay type: functional
# [8] = Luminescence Cell-Based Dose Response HTS to Identify Activators of Luciferase Translation or Activity in H4 […] Cells. [Related pubchem assays: 1829 (Project Summary), 1814 (Primary HTS)]; assay type: functional
# H4 = assay: Luminescence Cell-Based Dose Response HTS to Identify Activators of 5'UTR Stem-Loop Driven Prion Protein mRNA Translation in H4 Neuroglioblastoma Cells. [Related pubchem assays: 1829 (Project Summary), 1814 (Primary HTS)]; assay type: functional; conditions: Homo sapiens
# [9] = molecular target: Glucose-6-phosphate 1-dehydrogenase (Homo sapiens, UniProt P11413); assay: human G6PD enzyme inhibitors, dose response, selectivity assay for P. falciparum G6PD inhibitor project, biochemical, fluorescence (AID 504792); assay type: functional
# Sequence of Glucose-6-phosphate 1-dehydrogenase (P11413 whole entry): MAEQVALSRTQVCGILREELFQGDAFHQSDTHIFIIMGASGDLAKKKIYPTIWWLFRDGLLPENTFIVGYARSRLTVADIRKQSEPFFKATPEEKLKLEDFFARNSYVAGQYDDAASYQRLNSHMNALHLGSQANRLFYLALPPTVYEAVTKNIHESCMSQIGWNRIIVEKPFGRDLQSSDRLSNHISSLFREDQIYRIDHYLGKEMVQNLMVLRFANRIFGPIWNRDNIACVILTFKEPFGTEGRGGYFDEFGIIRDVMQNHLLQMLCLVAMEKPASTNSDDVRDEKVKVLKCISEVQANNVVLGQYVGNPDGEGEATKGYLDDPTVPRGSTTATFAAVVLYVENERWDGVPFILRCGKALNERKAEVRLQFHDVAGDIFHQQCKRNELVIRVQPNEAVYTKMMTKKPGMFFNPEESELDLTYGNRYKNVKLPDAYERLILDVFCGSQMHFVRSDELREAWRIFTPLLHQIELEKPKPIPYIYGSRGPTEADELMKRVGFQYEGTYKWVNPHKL
# Genome polyprotein = Genome polyprotein (dengue virus type 2, UniProt P29990); assay: Dengue-2 NS5 methyltransferase inhibitors, primary screen, biochemical, confirmation dose response (AID 588689); assay type: functional
# Sequence of Genome polyprotein (P29990 2492-3391 limits assumed): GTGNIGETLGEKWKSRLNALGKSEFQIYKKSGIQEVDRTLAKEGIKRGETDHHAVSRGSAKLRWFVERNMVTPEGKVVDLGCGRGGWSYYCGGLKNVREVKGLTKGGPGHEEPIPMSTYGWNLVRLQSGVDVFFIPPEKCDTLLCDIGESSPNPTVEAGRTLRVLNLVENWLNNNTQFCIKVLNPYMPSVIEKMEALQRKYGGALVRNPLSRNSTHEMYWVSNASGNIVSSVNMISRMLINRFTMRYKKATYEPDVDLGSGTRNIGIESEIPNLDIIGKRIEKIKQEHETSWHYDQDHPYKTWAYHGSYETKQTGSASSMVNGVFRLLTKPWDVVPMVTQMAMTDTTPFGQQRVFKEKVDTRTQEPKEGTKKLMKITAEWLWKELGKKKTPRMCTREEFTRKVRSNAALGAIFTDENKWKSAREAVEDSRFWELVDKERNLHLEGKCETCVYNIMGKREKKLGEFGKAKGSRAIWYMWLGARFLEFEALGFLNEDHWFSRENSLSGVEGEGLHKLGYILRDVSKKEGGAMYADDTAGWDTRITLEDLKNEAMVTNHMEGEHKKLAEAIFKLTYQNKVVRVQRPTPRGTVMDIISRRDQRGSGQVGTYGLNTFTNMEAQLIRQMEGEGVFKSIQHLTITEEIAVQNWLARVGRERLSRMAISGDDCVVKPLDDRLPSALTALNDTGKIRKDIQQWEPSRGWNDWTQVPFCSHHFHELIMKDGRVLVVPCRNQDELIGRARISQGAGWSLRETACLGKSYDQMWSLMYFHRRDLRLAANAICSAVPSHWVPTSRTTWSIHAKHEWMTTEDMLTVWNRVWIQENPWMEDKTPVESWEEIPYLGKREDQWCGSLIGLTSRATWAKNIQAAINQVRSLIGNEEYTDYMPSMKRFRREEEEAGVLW
# [10] = molecular target: Photoreceptor-specific nuclear receptor (Homo sapiens, UniProt Q9Y5X4); assay type: functional, cell-based;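 also: CHO-S cells with Gal4-NCOR and VP16-NR2E3 two-hybrid luciferase reporter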
# Sequence of Photoreceptor-specific nuclear receptor (Q9Y5X4 whole entry, the tested form may be a part): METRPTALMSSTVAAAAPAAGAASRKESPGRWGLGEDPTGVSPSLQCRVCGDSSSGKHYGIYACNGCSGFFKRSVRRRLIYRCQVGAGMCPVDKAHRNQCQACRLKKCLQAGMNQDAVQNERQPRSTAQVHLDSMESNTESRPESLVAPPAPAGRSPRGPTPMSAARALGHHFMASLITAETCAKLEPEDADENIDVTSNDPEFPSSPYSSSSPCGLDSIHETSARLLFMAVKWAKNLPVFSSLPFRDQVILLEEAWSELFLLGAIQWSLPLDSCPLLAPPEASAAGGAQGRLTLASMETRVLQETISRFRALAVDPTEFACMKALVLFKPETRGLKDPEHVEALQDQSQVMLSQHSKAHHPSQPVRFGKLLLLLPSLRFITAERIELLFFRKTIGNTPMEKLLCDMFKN
# [11] = molecular target: T2, Carboxy-terminal domain RNA polymerase II polypeptide A small phosphatase 1 (Homo sapiens, UniProt Q9GZU7); assay: inhibitors of CTDSP1, concentration-response testing, biochemical assay, absorbance-based, actives from ultra-high-throughput screening (AID 540297); assay type: functional
# T2 sequence (Q9GZU7 whole entry): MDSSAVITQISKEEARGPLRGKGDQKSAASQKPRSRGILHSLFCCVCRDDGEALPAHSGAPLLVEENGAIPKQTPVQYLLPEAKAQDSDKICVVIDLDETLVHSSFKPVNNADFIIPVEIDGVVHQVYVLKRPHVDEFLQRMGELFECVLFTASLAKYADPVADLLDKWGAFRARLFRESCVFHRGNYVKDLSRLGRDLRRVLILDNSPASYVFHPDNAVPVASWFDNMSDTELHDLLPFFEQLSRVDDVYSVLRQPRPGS
# [12] = molecular target: DNA (cytosine-5)-methyltransferase 1 (Homo sapiens, UniProt P26358); assay: DNMT1 methyltransferase inhibitors, confirmation, biochemical, fluorescent molecular beacon (AID 602386); assay type: functional
# Sequence of DNA (cytosine-5)-methyltransferase 1 (P26358 whole entry): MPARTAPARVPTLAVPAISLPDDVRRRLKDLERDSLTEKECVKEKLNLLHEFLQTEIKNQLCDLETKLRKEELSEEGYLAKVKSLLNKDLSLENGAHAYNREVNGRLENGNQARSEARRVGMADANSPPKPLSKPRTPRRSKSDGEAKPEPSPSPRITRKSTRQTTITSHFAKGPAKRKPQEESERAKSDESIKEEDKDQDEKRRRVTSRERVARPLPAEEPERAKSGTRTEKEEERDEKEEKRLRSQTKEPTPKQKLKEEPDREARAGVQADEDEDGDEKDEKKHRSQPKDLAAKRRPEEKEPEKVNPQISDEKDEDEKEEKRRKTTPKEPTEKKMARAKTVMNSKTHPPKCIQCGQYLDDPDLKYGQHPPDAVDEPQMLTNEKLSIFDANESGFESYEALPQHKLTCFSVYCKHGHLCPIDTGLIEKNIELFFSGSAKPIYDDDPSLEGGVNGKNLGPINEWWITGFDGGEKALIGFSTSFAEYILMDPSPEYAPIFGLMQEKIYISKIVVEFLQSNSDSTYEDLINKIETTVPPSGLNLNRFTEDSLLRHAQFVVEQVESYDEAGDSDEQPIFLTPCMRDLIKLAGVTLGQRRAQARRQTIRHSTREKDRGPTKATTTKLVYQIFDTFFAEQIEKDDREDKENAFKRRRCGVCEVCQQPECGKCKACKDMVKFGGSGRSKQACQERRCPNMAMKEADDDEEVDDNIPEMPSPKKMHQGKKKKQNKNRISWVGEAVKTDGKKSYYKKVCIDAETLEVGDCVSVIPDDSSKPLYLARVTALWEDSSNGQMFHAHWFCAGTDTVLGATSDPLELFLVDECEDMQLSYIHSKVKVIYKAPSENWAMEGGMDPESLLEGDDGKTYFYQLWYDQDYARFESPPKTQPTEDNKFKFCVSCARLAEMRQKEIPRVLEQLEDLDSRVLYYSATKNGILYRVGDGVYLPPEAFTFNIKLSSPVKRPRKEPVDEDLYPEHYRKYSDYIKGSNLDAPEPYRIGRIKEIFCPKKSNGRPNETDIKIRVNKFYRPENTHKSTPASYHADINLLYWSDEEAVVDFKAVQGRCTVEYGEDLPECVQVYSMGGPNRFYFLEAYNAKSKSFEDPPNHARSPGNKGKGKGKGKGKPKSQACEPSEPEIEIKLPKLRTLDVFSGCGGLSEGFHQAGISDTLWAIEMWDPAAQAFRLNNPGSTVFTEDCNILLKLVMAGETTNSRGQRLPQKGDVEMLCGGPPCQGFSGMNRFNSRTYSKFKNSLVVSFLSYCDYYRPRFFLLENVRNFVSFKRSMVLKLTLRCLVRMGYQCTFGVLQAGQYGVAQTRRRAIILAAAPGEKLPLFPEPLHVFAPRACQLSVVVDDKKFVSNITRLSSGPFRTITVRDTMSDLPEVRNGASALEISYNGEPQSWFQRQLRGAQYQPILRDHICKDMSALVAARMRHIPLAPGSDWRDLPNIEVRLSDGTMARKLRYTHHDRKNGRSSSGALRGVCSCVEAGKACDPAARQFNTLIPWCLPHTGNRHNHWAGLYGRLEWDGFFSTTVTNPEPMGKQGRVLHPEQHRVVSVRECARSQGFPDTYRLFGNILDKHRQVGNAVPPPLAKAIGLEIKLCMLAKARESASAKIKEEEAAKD
# [13] = THP-1 cell cytotoxicity, dose response, cytotoxicity control for Vif-APOBEC3G degradation inhibitor project, THP-1 cells (AID 1117359); assay type: functional; conditions: Human immunodeficiency virus 1, THP-1
# [14] = Counterscreen for […] of the human trace amine associated receptor 1 (TAAR1): Fluorescence-based cell-based high throughput dose response assay to identify nonselective Ga16 agonists.; assay type: functional
# [15] = molecular target: T1, Trace amine-associated receptor 1; assay: Fluorescence-based cell-based high throughput dose response assay to identify antagonists of the human trace amine associated receptor 1 (TAAR1).; assay type: functional
# [16] = Counterscreen for antagonists of the human trace amine associated receptor 1 (hTAAR1): Fluorescence-based cell-based high throughput dose response assay to identify nonselective Ga16 antagonists.; assay type: functional
# [17] = molecular target: T1, Trace amine-associated receptor 1; assay: Counterscreen for antagonists of the human trace amine associated receptor 1 (hTAAR1): Fluorescence-based cell-based high throughput dose response assay to identify TAAR1 Agonists.; assay type: functional
structure (smiles),measurement,setting,value
COc1cc(C(=O)CCN2CCC(c3ccccc3)C2)cc(OC)c1OC (stereo not given),CC50,[1],> 40 µM (active)
same,IC50,cells [2],> 29.9 µM (inactive)
same,EC50,[3],0.242 µM (active)
same,IC50,[4],2.35 µM (active)
same,EC50,cells [5],> 29.9 µM (inactive)
COc1cccc(NC(=O)c2ccc(CN3CCN(c4ccccc4)CC3)cc2)c1,EC50,Mu-type opioid receptor,92.5 µM (inactive)
same,EC50,[6],4.28 µM (active)
CC(C)c1cc2c(c(O)c1O)[C@@]13CCCC(C)(C)C1CC2OC3=O (stereo not given in full),EC50,[7],71.2 µM (active)
same,EC50,[8],> 60 µM (not active)
same,EC50,H4,> 120 µM (not active)
same,IC50,[9],> 80 µM (inactive)
same,IC50,Genome polyprotein,84.4 µM (active)
same,IC50,[10],2.59 µM (active)
COc1ccc(NC(=O)CN(C)C(=O)c2cc(-c3ccco3)nc3ccccc23)cc1,IC50,[11],2.55 µM (active)
same,IC50,[12],6.24 µM (active)
same,CC50,[13],> 40 µM (active)
COc1cc(NC(=O)c2cc3ccccc3o2)c(OC)cc1Cl,EC50,[14],> 29.9 µM (inactive)
same,IC50,[15],3.98 µM (active)
same,IC50,[16],> 29.9 µM (inactive)
same,EC50,[17],> 29.9 µM (inactive)
